Values of other authors in patent US9485971B2, “Fumarylacetoacetate hydrolase (Fah)-deficient pigs and uses thereof” (May Foundation for Medical Education and Research, priority 2010, dated 2016).

System: Fah-deficient mice

Compound: O=C1CCCC(=O)C1C(=O)c1ccc(C(F)(F)F)cc1[N+](=O)[O-] [NTBC, 2-(2-nitro-4-trifluoro-methyl-benzoyl)-1,3 cyclohexanedione]
- phenotype at suboptimal doses of NTBC (Fah-/- mice, suboptimal doses): develop HCC and fibrosis
- effect on liver function and neonatal lethality (Fah-deficient mice treated with NTBC): restores liver function and abolishes neonatal lethality
- hepatocellular carcinoma penetrance rate (suboptimal NTBC dose of 0.2 mg/kg/day, mice, within the first six months of life): exceeding 50%
